These results are taken from patent US20230000853A1, “PHARMACEUTICAL COMPOSITION CONTAINING NITROXOLINE, NITROXOLINE TABLET, PREPARATION METHOD THEREFOR AND USE THEREOF” (JIANGSU YAHONG MEDITECH CO., LTD., priority 2019, published 2023).

Series [1] in a line: Particle size determination by Malvern laser particle size analyzer, wet method. The series is classed as physicochemical. As to conditions: pulverized raw material; dispersant 0.5% aqueous Tween 80. As to the method:
The initial particle size D90 of the raw material nitroxoline or nitroxoline lysine salt was more than 100 μm. The raw material was pulverized with the mechanical mill to obtain the raw material having the particle size I, II, III or V in the following Table 1. The raw material was pulverized with the jet mill to obtain the raw material having the particle size IV in the following Table 1.
Determination was carried out on the Malvern laser particle size analyzer MS2000 by wet method according to the operation requirements of the instrument, the dispersant was an aqueous Tween 80 solution, and the mass fraction of Tween 80 in the aqueous solution was 0.5%.

The target of series [2] is T1, methionine aminopeptidase MetAP2 (Homo sapiens, UniProt P50579).
T1 construct: host or cells: vascular endothelial cells
T1 sequence (P50579 whole entry): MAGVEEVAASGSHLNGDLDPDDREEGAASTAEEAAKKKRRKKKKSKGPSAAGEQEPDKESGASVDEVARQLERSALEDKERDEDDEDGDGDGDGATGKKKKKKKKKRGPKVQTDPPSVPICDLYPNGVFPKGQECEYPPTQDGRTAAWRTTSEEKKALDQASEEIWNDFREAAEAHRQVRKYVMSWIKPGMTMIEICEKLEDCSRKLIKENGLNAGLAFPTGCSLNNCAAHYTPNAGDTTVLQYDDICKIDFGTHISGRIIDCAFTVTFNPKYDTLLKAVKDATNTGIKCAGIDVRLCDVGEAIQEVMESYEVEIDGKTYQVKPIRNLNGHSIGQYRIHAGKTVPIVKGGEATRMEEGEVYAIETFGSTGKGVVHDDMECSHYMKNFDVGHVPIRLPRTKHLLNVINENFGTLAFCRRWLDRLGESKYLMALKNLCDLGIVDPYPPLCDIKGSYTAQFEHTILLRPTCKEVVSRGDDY
The following applies: vascular endothelial cells; cited from earlier work.

For series [3], the target named is T2, silence information regulator 2-related enzyme SIRT1 (Homo sapiens, UniProt Q96EB6).
T2 construct: host or cells: vascular endothelial cells
T2 sequence (Q96EB6 1-747): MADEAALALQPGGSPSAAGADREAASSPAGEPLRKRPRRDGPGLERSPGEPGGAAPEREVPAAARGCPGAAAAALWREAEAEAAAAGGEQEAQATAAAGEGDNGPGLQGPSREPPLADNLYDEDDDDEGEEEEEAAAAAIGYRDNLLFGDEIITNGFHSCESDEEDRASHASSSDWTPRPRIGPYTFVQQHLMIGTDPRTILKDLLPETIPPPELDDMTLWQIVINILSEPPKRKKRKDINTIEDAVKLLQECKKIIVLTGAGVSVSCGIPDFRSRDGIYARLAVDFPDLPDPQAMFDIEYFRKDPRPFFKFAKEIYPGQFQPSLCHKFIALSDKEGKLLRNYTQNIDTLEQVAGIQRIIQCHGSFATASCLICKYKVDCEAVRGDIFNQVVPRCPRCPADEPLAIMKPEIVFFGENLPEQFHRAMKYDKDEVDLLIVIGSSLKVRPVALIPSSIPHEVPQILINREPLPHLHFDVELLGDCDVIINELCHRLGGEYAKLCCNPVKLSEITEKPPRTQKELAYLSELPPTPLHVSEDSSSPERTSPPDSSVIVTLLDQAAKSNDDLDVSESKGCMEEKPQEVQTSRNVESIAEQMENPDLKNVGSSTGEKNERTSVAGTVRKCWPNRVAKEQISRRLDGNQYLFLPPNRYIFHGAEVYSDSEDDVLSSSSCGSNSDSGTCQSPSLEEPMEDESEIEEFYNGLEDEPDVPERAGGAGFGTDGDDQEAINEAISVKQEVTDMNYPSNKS
The following applies: vascular endothelial cells; cited from earlier work.

The nature of series [4]: Solubility and dissolution of nitroxoline in aqueous media. As to conditions: 0.1 mol/L hydrochloric acid, water and phosphate buffer (pH 6.8) at 37° C. The series is classed as physicochemical. From the text: In addition, the resulting nitroxoline tablets have uniform content, narrow variation range in hardness, and good fluidity and compressibility.
For series [5] the following is noted: low solubility and high permeability; cited from earlier work.

With `NCCCC[C@H](N)C(=O)O.O=[N+]([O-])c1ccc(O)c2ncccc12` [V (Nitroxoline lysine salt), Nitroxoline lysine salt], in series [1], the “Particle size D10” value came to 3.67 μm, the “Particle size D50” value came to 10.88 μm and the “Particle size D90” value came out at 43.29 μm.
For `O=[N+]([O-])c1ccc(O)c2ncccc12` [I (Nitroxoline), Nitroxoline], in series [1], the “Particle size D10” value came out at 5.66 μm, the “Particle size D50” value amounted to 33.60 μm and the “Particle size D90” value stood at 99.31 μm.
For the molecule `O=[N+]([O-])c1ccc(O)c2ncccc12` [nitroxoline, 5-nitro-8-hydroxyquinoline], in series [2], the “Inhibition of MetAP2” value was “inhibit”. The “Inhibition of SIRT1” value in series [3] is “inhibit”. Further, the Solubility and dissolution entry in series [4] is “low solubility and slow dissolution”. The BCS class result in series [5] was “BCS class II”.
As for `O=[N+]([O-])c1ccc(O)c2ncccc12` [II (Nitroxoline), Nitroxoline], in series [1], the “Particle size D10” value came out at 3.99 μm, the “Particle size D50” value came out at 14.95 μm and the “Particle size D90” value stood at 70.58 μm.
For `O=[N+]([O-])c1ccc(O)c2ncccc12` [IV (Nitroxoline), Nitroxoline], in series [1], the “Particle size D10” value is reported as 0.12 μm, the “Particle size D50” value is 4.58 μm and the “Particle size D90” value was 12.61 μm.
The like results for `O=[N+]([O-])c1ccc(O)c2ncccc12` [III (Nitroxoline), Nitroxoline] were, in that order, 3.44 μm, 11.02 μm and 42.55 μm.
